Source: publication PMC8582824, “Targeting DDX3X Helicase Activity with BA103 Shows Promising Therapeutic Effects in Preclinical Glioblastoma Models” (Cancers, 2021)

Columns and labels:
ATPase DDX3X = molecular target: T1, ATPase DDX3X (Homo sapiens, UniProt O00571); assay: DDX3X ATPase activity inhibition; format: biochemical; conditions: for IC50: >200 = less than 20% inhibition at 200 µM, highest concentration tested, read-out: ATPase DDX3X IC50 ± SD
T1 construct: Recombinant his-tagged human full length DDX3X; His tag; made in house; host or cells: ShuffleT7 E. coli
T1 sequence (O00571 whole entry): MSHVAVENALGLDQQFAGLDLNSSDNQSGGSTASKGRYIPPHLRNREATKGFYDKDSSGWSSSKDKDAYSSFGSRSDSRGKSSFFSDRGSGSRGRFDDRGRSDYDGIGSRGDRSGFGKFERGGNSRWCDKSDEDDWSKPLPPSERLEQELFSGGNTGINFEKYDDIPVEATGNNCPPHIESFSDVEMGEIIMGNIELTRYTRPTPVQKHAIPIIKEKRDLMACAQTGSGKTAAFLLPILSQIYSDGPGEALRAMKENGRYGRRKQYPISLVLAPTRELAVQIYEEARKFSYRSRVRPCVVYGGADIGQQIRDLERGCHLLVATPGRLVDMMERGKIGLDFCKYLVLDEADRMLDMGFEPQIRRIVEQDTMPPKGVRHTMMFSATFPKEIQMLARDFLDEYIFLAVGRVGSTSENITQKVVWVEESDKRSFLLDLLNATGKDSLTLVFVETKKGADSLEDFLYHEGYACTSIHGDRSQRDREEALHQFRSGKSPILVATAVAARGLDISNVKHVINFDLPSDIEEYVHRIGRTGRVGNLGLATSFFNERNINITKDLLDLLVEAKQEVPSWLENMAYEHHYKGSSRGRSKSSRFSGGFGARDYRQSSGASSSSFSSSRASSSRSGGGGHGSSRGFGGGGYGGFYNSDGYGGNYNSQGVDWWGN
From the text: To confirm the proposed mechanism of action and the selectivity of our compounds for the helicase binding site, we tested the capability of BA103 to inhibit the ATPase activity of DDX3X and the helicase activity of DDX1, which is another human member of the DEAD-box family.

DU-145 = assay: MTS cytotoxicity assay, DU-145 cells; format: cell-based; conditions: DU-145, 72 h
Method: For CellTiter 96® Aqueous One Solution Cell Proliferation Assay (MTS) (Promega, Madison, WI, USA), cells were seeded at 5 × 10^3 per well in 96-well plates in quadruplicate together a control with no cells to evaluate the background. After 24 h, the culture medium was removed, and fresh medium containing increasing concentrations of chemical compounds was added to cells. The fixed final concentrations were 0.1 μM, 1 μM, 10 μM, and 100 μM. DMSO was the vehicle used for dilution of the compounds, and its final concentration on cells was less than 0.2%. Medium-only containing wells were included as controls. […] After 3 h at 37 °C in a humidified, 5% CO2 atmosphere, the absorbance at 492 nm was recorded using an EZREAD400 (Biochrom, Cambridge, United Kingdom) plate reader. The average 490 nm absorbance from the “no cell” control wells was subtracted from all other values to yield background-corrected absorbance. Dose–response curves and CC50 values have been calculated by plotting the absorbance data as a function of inhibitor concentrations and fitting the data by least-squares nonlinear regression, according to the method of Marquardt–Levenberg, with the computer program GraphPad Prism 6.0.
Cells were incubated with a scalar concentration of DDX3X inhibitors, and after 72 h of treatment, cell viability was assessed by cytotoxicity assay. […]

DDX3X helicase activity = molecular target: T2, DDX3X helicase activity (Homo sapiens, UniProt O00571); assay: FRET-based DDX3X helicase assay; format: biochemical; conditions: FRET helicase assay, recombinant DDX3X; for IC50: read-out: IC50 ± SD, DDX3X anti-enzymatic (helicase) activity
T2 construct: Recombinant his-tagged human full length DDX3X; His tag; made in house; host or cells: ShuffleT7 E. coli
T2 sequence (O00571 whole entry): as above
Method: Recombinant his-tagged human full length DDX3X cloned the E. coli expression vector pET-30a(+). ShuffleT7 E. coli cells were transformed with the plasmid and grown at 37 °C up to OD600 = 0.7. DDX3X expression was induced with 0.5 mM IPTG at 15 °C O/N. Cells were harvested by centrifugation, lysed, and the crude extract was centrifuged at 100,000 g for 60 min at 4 °C in a Beckman centrifuge before being loaded onto a FPLC Ni-NTA column (GE Healthcare, Chicago, IL, USA). The column was equilibrated in Buffer A (50 mM Tris-HCl pH 8.0, 250 mM NaCl, 25 mM Imidazole and 20% glycerol). After extensive washing in Buffer A, the column was eluted with a linear gradient in Buffer A from 25 to 250 mM Imidazole. Proteins in the eluted fractions were visualized on SDS-PAGE and tested for the presence of DDX3X by Western blot with anti-DDX3X A300-475A (Bethyl Laboratories, Montgomery, TX, USA) at 1:4000 dilution in 5% milk. Fractions containing the purest DDX3X protein were pooled and stored at −80 °C.
The dsRNA substrate for the helicase assay was prepared by hybridizing two ss RNA oligonucleotides with the following sequences: • Fluo-FAM 5′ […] 3′ • Qu-BHQ1 5′ […] 3′ • DNA capture 5′ […] 3′.
The sequence in Fluo-FAM complementary to Qu-BHQ1 is underlined. Fluo-FAM carries a 6-carboxyfluorescein fluorophore at its 3′ end, while Qu-BHQ1 carries a Black Hole quencher group at its 5′ end. The DNA capture oligonucleotide is complementary to the Qu-BHQ1 oligonucleotide, but it bears no modifications. A helicase assay using the dsRNA substrate was performed in 20 mM TrisHCl (pH 8), 70 mM KCl, 2 mM MgCl2, 2 mM dithiothreititol, 12 units RNasin (Promega), 2 mM ATP, 50 nM dsRNA, and 100 nM capture strand in 20 μL of reaction volume. The unwinding reaction was started by adding 60 pmols of DDX3X recombinant protein and carried out at 37 °C for 40 min using a LightCycler 480 (Roche, Basel, Switzerland). The fluorescence intensity was recorded every 30 s. Values of fluorescence signal in the presence or in the absence of inhibitor molecules were analyzed by linear interpolation, and the corresponding slope values were used to determine the apparent unwinding rate.
The IC50 values have been calculated from dose–response curves. Data (in triplicate) were plotted and analyzed by least-squares nonlinear regression, according to the method of Marquardt–Levenberg, with the computer program GraphPad Prism 6.0. Data were fitted to the following equation:Eobs = Emax/(1 + (IC50/[I])^n)(1) where E(obs) is the observed enzymatic activity in the presence of each inhibitor dose [I]; E(max) is the maximal enzymatic activity in the absence of the inhibitor; and n is an exponential term to take into account sigmoidal dose–response curves.
All the compounds were tested for their ability to inhibit the helicase activity of DDX3X using a fluorescence resonance energy transfer (FRET)-based assay, as previously described. Values of fluorescence signal in the presence or in the absence of inhibitor molecules were analyzed by linear interpolation (for details, see Methods 2.3.2).

SMILES	inhibition of the ATPase activity of DDX3X (ATPase DDX3X; any compound concentration)	IC50 ± SD, DDX3X anti-enzymatic (helicase) activity (DDX3X helicase activity)	IC50 (DDX3X helicase activity) [nM]	IC50 (ATPase DDX3X) [nM]	CC50 (DU-145)
CCCCc1cn(-c2ccc(NC(=O)Nc3ccccc3C)cc2)nn1 [Compound 1, reference compound]			300 ± 70	> 200000	
CCCCc1nnc(-c2ccc(NC(=O)Nc3ccccc3C(F)(F)F)cc2)[nH]1 [Compound 4, 1-(4-(5-Butyl-4H-1,2,4-triazol-3-yl)phenyl)-3-(2-(trifluoromethyl)phenyl)urea]		submicromolar range	70 ± 20		
CCCCn1nnc(-c2ccc(NC(=O)Nc3ccccc3C(F)(F)F)cc2)n1 [Compound 6, 1-(4-(2-Butyl-2H-tetrazol-5-yl)phenyl)-3-(2-(trifluoromethyl)phenyl)urea]		submicromolar range			

The next lines start with results.

inhibition of the ATPase activity of DDX3X (ATPase DDX3X; any compound concentration)	IC50 ± SD, DDX3X anti-enzymatic (helicase) activity (DDX3X helicase activity)	IC50 (DDX3X helicase activity) [nM]	SMILES	IC50 (ATPase DDX3X) [nM]	CC50 (DU-145)
no inhibition	submicromolar range	400 ± 50	CCCCc1cn(-c2ccc(NC(=O)Nc3ccccc3C(F)(F)F)cc2)nn1 [BA103, 1-(4-(4-Butyl-1H-1,2,3-triazol-1-yl)phenyl)-3-(2-(trifluoromethyl)phenyl)urea]	> 200000	low micromolar range
	submicromolar range	100 ± 30	CC(C)CCc1cn(-c2ccc(NC(=O)Nc3cccc4cnccc34)cn2)nn1 [Compound 10, 1-(6-(4-Isopentyl-1H-1,2,3-triazol-1-yl)pyridin-3-yl)-3-(isoquinolin-5-yl)urea]		
